According to patent US12145939B2, “Substituted [1,2,4]triazolo[4,3-a]pyrazines as ion channel modulators” (PRAXIS PRECISION MEDICINES, INC., priority 2019, dated 2024):

Molecular target: T1, human NaV1.6 (hNaV1.6) (Homo sapiens, UniProt Q9UQD0)
T1 construct: expressed in transfected cells; host or cells: HEK-293
Experiment: Modulation of late sodium current (INaL) at hNaV1.6, PatchXpress electrophysiology
Format: cell-based
Settings: HEK293, HEK-293 cells expressing recombinant human NaV 1.6, late current evoked by 300 nM ATX-II, read-out: NaV 1.6 Assay Data (percent inhibition of INaL at hNaV1.6)
Description: Functional characterization of exemplary compounds to modulate INaL expressed by the NaV1.6 voltage-gated sodium channel was accomplished using the PatchXpress™ high throughput electrophysiology platform (Molecular Devices, Sunnyvale, CA). HEK-293 cells expressing recombinant, human NaV1.6 (hNaV1.6) were grown in DMEM/high-glucose Dulbecco's modified, 10% FBS, 2 mM sodium pyruvate, 10 mM HEPES and 400 μg/mL G418. Cells were grown to 50%-80% confluency prior to harvesting. Trypsinized cells were washed, allowed to recover for 1 hour and then resuspended in extracellular recording solution at a concentration of 1×10^6 cells/ml. The onboard liquid handling facility of the PatchXpress was used for dispensing cells and applying test compounds. NaV late currents were evoked by the application of 300 nM ATX-II. INaL was evoked by depolarizing pulses to 0 mV for 200 ms from a non-inactivating holding potential (e.g., −120 mV) at a frequency of 0.1 Hz. INaL amplitude and stability were determined by analyzing the mean current amplitude over the final 20 ms of the test pulse. Following steady state block with exemplary compounds (e.g., as described herein), a Na+ free solution containing an impermeant cation (e.g., Choline or NDMG) was added to confirm the identity of the sodium current. Percent steady-state inhibition of INaL was calculated as: […], where INaL_compound and INaL_control represent INaL recorded in the presence or absence of compound, respectively.
Results from this assay relating to percent inhibition of INaL at hNaV1.6 (measured using a procedure similar to described above but using HEK-293 cells expressing recombinant, human NaV 1.6 (h NaV 1.6) at 1 μM are summarized in Table 1 below. In this table, “A” indicates inhibition of less than 30%; “B” indicates inhibition of between about 30% to about 70%; and “C” indicates inhibition of greater than 70%. “N/A” indicates not available.

T1 sequence (Q9UQD0 whole entry): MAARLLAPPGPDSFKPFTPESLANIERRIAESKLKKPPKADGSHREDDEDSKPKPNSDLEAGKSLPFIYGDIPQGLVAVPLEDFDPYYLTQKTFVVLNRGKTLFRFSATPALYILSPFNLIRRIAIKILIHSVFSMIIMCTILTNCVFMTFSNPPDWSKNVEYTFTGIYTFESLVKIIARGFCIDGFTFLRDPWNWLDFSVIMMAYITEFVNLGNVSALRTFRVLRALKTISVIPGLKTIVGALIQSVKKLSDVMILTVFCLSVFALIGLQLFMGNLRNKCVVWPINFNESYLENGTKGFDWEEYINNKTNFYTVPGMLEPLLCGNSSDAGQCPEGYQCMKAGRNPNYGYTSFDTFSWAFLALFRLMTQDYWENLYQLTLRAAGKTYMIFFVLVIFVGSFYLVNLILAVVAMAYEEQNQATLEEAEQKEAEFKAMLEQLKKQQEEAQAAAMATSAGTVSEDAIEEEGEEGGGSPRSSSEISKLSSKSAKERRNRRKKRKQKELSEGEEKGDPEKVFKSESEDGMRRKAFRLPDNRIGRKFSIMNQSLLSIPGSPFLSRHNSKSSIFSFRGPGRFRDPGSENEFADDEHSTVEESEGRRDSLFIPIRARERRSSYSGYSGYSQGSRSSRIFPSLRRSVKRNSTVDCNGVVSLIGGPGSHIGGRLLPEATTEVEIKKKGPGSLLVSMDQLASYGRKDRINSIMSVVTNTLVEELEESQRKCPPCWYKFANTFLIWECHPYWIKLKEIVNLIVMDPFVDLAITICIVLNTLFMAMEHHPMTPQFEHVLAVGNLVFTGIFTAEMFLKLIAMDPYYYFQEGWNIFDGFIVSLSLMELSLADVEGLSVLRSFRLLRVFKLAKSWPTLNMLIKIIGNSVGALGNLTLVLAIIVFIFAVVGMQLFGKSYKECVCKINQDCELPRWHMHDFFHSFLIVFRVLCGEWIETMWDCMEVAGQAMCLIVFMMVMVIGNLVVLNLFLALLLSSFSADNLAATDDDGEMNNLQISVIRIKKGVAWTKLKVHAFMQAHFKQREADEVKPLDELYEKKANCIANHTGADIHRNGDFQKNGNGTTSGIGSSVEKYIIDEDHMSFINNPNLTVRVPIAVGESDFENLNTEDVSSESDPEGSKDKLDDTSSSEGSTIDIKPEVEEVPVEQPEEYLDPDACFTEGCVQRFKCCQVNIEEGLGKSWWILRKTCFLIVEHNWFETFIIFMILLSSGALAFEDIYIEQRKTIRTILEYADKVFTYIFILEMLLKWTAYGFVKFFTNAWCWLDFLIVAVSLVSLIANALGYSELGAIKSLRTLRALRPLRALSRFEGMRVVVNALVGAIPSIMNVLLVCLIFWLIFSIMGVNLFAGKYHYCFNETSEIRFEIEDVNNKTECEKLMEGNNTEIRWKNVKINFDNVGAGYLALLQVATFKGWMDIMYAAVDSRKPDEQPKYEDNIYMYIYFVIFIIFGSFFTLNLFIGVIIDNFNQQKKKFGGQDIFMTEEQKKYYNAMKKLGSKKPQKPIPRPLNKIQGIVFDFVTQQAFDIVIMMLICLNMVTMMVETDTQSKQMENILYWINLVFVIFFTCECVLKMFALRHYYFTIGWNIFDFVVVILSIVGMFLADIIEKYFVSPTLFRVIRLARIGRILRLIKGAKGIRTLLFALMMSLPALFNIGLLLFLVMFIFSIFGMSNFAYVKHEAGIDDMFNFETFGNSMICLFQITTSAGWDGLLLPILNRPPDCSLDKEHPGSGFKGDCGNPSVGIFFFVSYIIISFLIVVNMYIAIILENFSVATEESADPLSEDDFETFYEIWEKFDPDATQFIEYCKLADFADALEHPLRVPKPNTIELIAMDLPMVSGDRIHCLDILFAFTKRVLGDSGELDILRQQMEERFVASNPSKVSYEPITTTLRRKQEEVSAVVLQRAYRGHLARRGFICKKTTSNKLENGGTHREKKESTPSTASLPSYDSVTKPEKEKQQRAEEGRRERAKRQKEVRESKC

| Compound | inhibition at 1 µM [%] |
| --- | --- |
| CO[C@@H](C)c1nnc2cnc(-c3ccc(OC4(C(F)(F)F)CCC4)nc3)cn12 (single isomer, unassigned) [Compound I-5] | 30 to 70 |
| COC(C)(C)c1nnc2cnc(-c3cnc(O[C@H](C)C(F)(F)F)c(F)c3)cn12 [Compound II-8, (R)-6-(5-fluoro-6-((1,1,1-trifluoropropan-2-yl)oxy)pyridin-3-yl)-3-(2-methoxypropan-2-yl)-[1,2,4]triazolo[4,3-a]pyrazine] | 30 to 70 |
| CCO[C@@H](C)c1nnc2cnc(-c3ccc(OC(C)(C)C(F)(F)F)nc3)cn12 [Compound I-8, (S)-3-(1-ethoxyethyl)-6-(6-((1,1,1-trifluoro-2-methylpropan-2-yl)oxy)pyridin-3-yl)-[1,2,4]triazolo[4,3-a]pyrazine] | 30 to 70 |
| CO[C@@H](C)c1nnc2cnc(-c3ccc(O[C@H](C4CC4)C(F)(F)F)nc3)cn12 (single isomer, unassigned) [Compound I-23] | < 30 |
| CCOC(F)(F)c1nnc2cnc(-c3ccc([C@H](C)OCC(F)(F)F)cc3C)cn12 (single isomer, unassigned) [Compound III-10] | < 30 |
| CCO[C@@H](C)c1nnc2cnc(-c3cnc(OC4(C(F)(F)F)CCC4)c(F)c3)cn12 [Compound I-7, (S)-3-(1-ethoxyethyl)-6-(5-fluoro-6-(1-(trifluoromethyl)cyclobutoxy)pyridin-3-yl)-[1,2,4]triazolo[4,3-a]pyrazine] | 30 to 70 |
| COC(C)(C)c1nnc2cnc(-c3ccc(OCC(F)(F)F)nc3)cn12 [Compound II-5, 3-(2-methoxypropan-2-yl)-6-(6-(2,2,2-trifluoroethoxy)pyridin-3-yl)-[1,2,4]triazolo[4,3-a]pyrazine] | < 30 |
| CCO[C@H](C)c1nnc2cnc(-c3cnc(OC(C)(C)C(F)(F)F)c(F)c3)cn12 [Compound I-13, (R)-3-(1-ethoxyethyl)-6-(5-fluoro-6-((1,1,1-trifluoro-2-methylpropan-2-yl)oxy)pyridin-3-yl)-[1,2,4]triazolo[4,3-a]pyrazine] | 30 to 70 |
| CCOC(F)(F)c1nnc2cnc(-c3ccc(OC(F)(F)F)cc3C3CC3)cn12 [Compound III-2, 6-[2-cyclopropyl-4-(trifluoromethoxy)phenyl]-3-[ethoxy(difluoro)methyl]-[1,2,4]triazolo[4,3-a]pyrazine] | > 70 |
| COC(F)(F)c1nnc2cnc(-c3ccc([C@@H]4CC4(F)F)cc3C)cn12 (single isomer, unassigned) [Compound III-8] | > 70 |
| COC(C)(C)c1nnc2cnc(-c3cnc(OCC(F)(F)F)c(F)c3)cn12 [Compound II-4, 6-(5-fluoro-6-(2,2,2-trifluoroethoxy)pyridin-3-yl)-3-(2-methoxypropan-2-yl)-[1,2,4]triazolo[4,3-a]pyrazine] | < 30 |
| COC(C)(C)c1nnc2cnc(-c3ccc(OC(C)C(F)(F)F)nc3)cn12 (racemic) [Compound II-6, 3-(1-methoxy-1-methyl-ethyl)-6-[6-[rac-(1R)-2,2,2-trifluoro-1-methyl-ethoxy]-3-pyridyl]-[1,2,4]triazolo[4,3-a]pyrazine] | < 30 |
| CCOC(F)(F)c1nnc2cnc(-c3ccc(COCC(F)(F)F)cc3)cn12 [Compound III-11, 3-(ethoxydifluoromethyl)-6-(4-((2,2,2-trifluoroethoxy)methyl)phenyl)-[1,2,4]triazolo[4,3-a]pyrazine] | 30 to 70 |
| CO[C@H](C)c1nnc2cnc(-c3cnc(O[C@H](C4CC4)C(F)(F)F)c(F)c3)cn12 (single isomer, unassigned) [Compound I-15] | 30 to 70 |
| CO[C@@H](C)c1nnc2cnc(-c3cnc(O[C@@H](C4CC4)C(F)(F)F)c(F)c3)cn12 (single isomer, unassigned) [Compound I-18] | 30 to 70 |
| CCOC(F)(F)c1nnc2cnc(-c3ccc([C@H](C)OCC(F)(F)F)cc3)cn12 (single isomer, unassigned) [Compound III-20] | 30 to 70 |
| CCOC(C)(C)c1nnc2cnc(-c3ccc(OC(C)(C)C(F)(F)F)nc3)cn12 [Compound II-15, 3-(2-ethoxypropan-2-yl)-6-(6-((1,1,1-trifluoro-2-methylpropan-2-yl)oxy)pyridin-3-yl)-[1,2,4]triazolo[4,3-a]pyrazine] | 30 to 70 |
| CCOC(C)(C)c1nnc2cnc(-c3cnc(OC(C)(C)C(F)(F)F)c(F)c3)cn12 [Compound II-11, 3-(2-ethoxypropan-2-yl)-6-(5-fluoro-6-((1,1,1-trifluoro-2-methylpropan-2-yl)oxy)pyridin-3-yl)-[1,2,4]triazolo[4,3-a]pyrazine] | 30 to 70 |
| CO[C@@H](C)c1nnc2cnc(-c3ccc(OC(C)(C)C(F)(F)F)nc3)cn12 (single isomer, unassigned) [Compound I-10] | 30 to 70 |
| COC1(c2nnc3cnc(-c4cnc(O[C@@H](C)C(F)(F)F)c(F)c4)cn23)CC1 [Compound II-3, (S)-6-(5-fluoro-6-((1,1,1-trifluoropropan-2-yl)oxy)pyridin-3-yl)-3-(1-methoxycyclopropyl)-[1,2,4]triazolo[4,3-a]pyrazine] | 30 to 70 |
| CO[C@H](C)c1nnc2cnc(-c3ccc(O[C@@H](C4CC4)C(F)(F)F)nc3)cn12 (single isomer, unassigned) [Compound I-22] | < 30 |
| COC(F)(F)c1nnc2cnc(-c3ccc(COCC(F)(F)F)cc3C)cn12 [Compound III-6, 3-[difluoro(methoxy)methyl]-6-[2-methyl-4-(2,2,2-trifluoroethoxymethyl)phenyl]-[1,2,4]triazolo[4,3-a]pyrazine] | 30 to 70 |
| CO[C@@H](C)c1nnc2cnc(-c3cnc(OC(C)(C)C(F)(F)F)c(F)c3)cn12 (single isomer, unassigned) [Compound I-2] | 30 to 70 |
